Data from US9163021B2, “Pyrrolo[3,2-c]pyridine tropomyosin-related kinase inhibitors” (Pfizer Limited, priority 2012, dated 2015).

molecular target: TRKA (Homo sapiens (Human), UniProt P04629); test: Isolated TRK enzyme assay (HTRF KinEASE-TK), PV3144 TrkA enzyme assay; assay type: biochemical; details: arithmetic mean where more than one reading
Method in brief: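 Kinase (recombinant His-TrkA cytoplasmic domain, ATP-preactivated 20 min) met compound 20 min, then biotinylated TK substrate (1 µM final) with Mg2+/DTT buffer; HTRF detection.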

Sequence of TRKA (P04629 441-796): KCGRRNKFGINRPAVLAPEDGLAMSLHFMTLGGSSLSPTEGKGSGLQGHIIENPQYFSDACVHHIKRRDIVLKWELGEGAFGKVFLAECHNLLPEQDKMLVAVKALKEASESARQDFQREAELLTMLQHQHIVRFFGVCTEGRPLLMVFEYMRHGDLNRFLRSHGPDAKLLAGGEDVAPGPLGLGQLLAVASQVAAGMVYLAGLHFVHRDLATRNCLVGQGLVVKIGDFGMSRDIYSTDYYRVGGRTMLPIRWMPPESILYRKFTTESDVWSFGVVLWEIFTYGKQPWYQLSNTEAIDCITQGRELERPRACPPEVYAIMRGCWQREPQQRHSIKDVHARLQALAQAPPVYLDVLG

Compound | IC50 [nM]
CC(C)n1cc(C(=O)c2ccnc(NC(=O)Cc3ccc(Cl)c(Cl)c3)c2)c2cnccc21 [Example 165, 2-(3,4-dichlorophenyl)-N-(4-{[1-(propan-2-yl)-1H-pyrrolo[3,2-c]pyridin-3-yl]carbonyl}pyridin-2-yl)acetamide] | 5.68
N-(4-{[1-(propan-2-yl)-1H-pyrrolo[3,2-c]pyridin-3-yl]carbonyl}pyridin-2-yl)-2-[4-(trifluoromethoxy)phenyl]acetamide [Example 168] | 14.7
CC(CO)n1cc(C(=O)c2cncc(NC(=O)Cn3cc(C(F)(F)F)cn3)c2)c2cncc(F)c21 (single isomer, unassigned) [Example 219, N-(5-{[7-fluoro-1-(1-hydroxypropan-2-yl)-1H-pyrrolo[3,2-c]pyridin-3-yl]carbonyl}pyridin-3-yl)-2-[4-(trifluoromethyl)-1H-pyrazol-1-yl]acetamide] | 15.2
O=C(Cc1nc(C2CC2)oc1C1CC1)Nc1cc(C(=O)c2cn(C3COC3)c3ccncc23)ccn1 [Example 202, 2-(2,5-dicyclopropyl-1,3-oxazol-4-yl)-N-(4-{[1-(oxetan-3-yl)-1H-pyrrolo[3,2-c]pyridin-3-yl]carbonyl}pyridin-2-yl)acetamide] | 437
N-(5-{[7-fluoro-1-(1-hydroxypropan-2-yl)-1H-pyrrolo[3,2-c]pyridin-3-yl]carbonyl}pyridin-3-yl)-2-[4-(trifluoromethyl)-1H-1,2,3-triazol-1-yl]acetamide [Example 214] | 93.1
CC(C)n1cc(C(=O)c2ccnc(NC(=O)Cc3cccc(OC(F)(F)F)c3)c2)c2cnccc21 [Example 191, N-(4-{[1-(propan-2-yl)-1H-pyrrolo[3,2-c]pyridin-3-yl]carbonyl}pyridin-2-yl)-2-[3-(trifluoromethoxy)phenyl]acetamide] | 7.41
N-(2-{[1-(1-hydroxypropan-2-yl)-1H-pyrrolo[3,2-c]pyridin-3-yl]carbonyl}pyridin-4-yl)-2-[4-(trifluoromethyl)phenyl]acetamide [Example 84] | 141
Cc1nc(CC(=O)Nc2cc(C(=O)c3cn(C(C)C)c4ccncc34)ccn2)c(C2CC2)o1 [Example 174, 2(5-cyclopropyl-2-methyl-1,3-oxazol-4-yl)-N-(4-{[1-(propan-2-yl)-1H-pyrrolo[3,2-c]pyridin-3-yl]carbonyl}pyridin-2-yl)acetamide] | 51.4
Cc1cc(C)n(CC(=O)Nc2cc(C(=O)c3cn(CCO)c4ccncc34)ccn2)n1 [Example 152, 2-(3,5-dimethyl-1H-pyrazol-1-yl)-N-(4-{[1-(2-hydroxyethyl)-1H-pyrrolo[3,2-c]pyridin-3-yl]carbonyl}pyridin-2-yl)acetamide] | 2150
Cc1cc(C(F)(F)F)nn1CC(=O)Nc1cc(C(=O)c2cn(CCO)c3ccncc23)ccn1 [Example 153, N-(4-{[1-(2-hydroxyethyl)-1H-pyrrolo[3,2-c]pyridin-3-yl]carbonyl}pyridin-2-yl)-2-[5-methyl-3-(trifluoromethyl)-1H-pyrazol-1-yl]acetamide] | 83.9
CC(CO)n1cc(C(=O)c2cncc(NC(=O)Cc3ccc(C(F)(F)F)cc3)c2)c2cnccc21 (single isomer, unassigned) [Example 65, N-(5-{[1-(1-hydroxypropan-2-yl)-1H-pyrrolo[3,2-c]pyridin-3-yl]carbonyl}pyridin-3-yl)-2-[4-(trifluoromethyl)phenyl]acetamide] | 37
CC(C)n1cc(C(=O)c2cncc(NC(=O)Cn3ccc(C(F)(F)F)n3)c2)c2cnccc21 [Example 21, N-(5-{[1-(propan-2-yl)-1H-pyrrolo[3,2-c]pyridin-3-yl]carbonyl}pyridin-3-yl)-2-[3-(trifluoromethyl)-1H-pyrazol-1-yl]acetamide] | 27.1
CC(CO)n1cc(C(=O)c2cc(NC(=O)Cc3ccc(Cl)cn3)ccn2)c2cnccc21 (single isomer, unassigned) [Example 86, 2-(5-chloropyridin-2-yl)-N-(2-{[1-(1-hydroxypropan-2-yl)-1H-pyrrolo[3,2-c]pyridin-3-yl]carbonyl}pyridin-4-yl)acetamide] | 93.2
CC(CO)n1cc(C(=O)c2cncc(NC(=O)Cc3ccc(F)cn3)c2)c2cnccc21 (single isomer, unassigned) [Example 68, 2-(5-fluoropyridin-2-yl)-N-(5-{[1-(1-hydroxypropan-2-yl)-1H-pyrrolo[3,2-c]pyridin-3-yl]carbonyl}pyridin-3-yl)acetamide] | 201
CC(C)n1ncc(CC(=O)Nc2cc(C(=O)c3cn(C(C)C)c4ccncc34)ccn2)c1C(F)(F)F [Example 178, N-(4-{[1-(propan-2-yl)-1H-pyrrolo[3,2-c]pyridin-3-yl]carbonyl}pyridin-2-yl)-2-[1-(propan-2-yl)-5-(trifluoromethyl)-1H-pyrazol-4-yl]acetamide] | 22
CC(C)n1cc(C(=O)c2ccnc(NC(=O)Cc3cncs3)c2)c2cnccc21 [Example 185, N-(4-{[1-(propan-2-yl)-1H-pyrrolo[3,2-c]pyridin-3-yl]carbonyl}pyridin-2-yl)-2(1,3-thiazol-5-yl)acetamide] | 1860
CC(CO)n1cc(C(=O)c2cncc(NC(=O)Cc3ccc(Cl)cc3)c2)c2cncc(F)c21 (single isomer, unassigned) [Example 206, 2-(4-chlorophenyl)-N-(5-{[7-fluoro-1-(1-hydroxypropan-2-yl)-1H-pyrrolo[3,2-c]pyridin-3-yl]carbonyl}pyridin-3-yl)acetamide] | 20.7
CC(C)n1ncc(CC(=O)Nc2cc(C(=O)c3cn(CCO)c4ccncc34)ccn2)c1C(F)(F)F [Example 157, N-(4-{[1-(2-hydroxyethyl)-1H-pyrrolo[3,2-c]pyridin-3-yl]carbonyl}pyridin-2-yl)-2-[1-(propan-2-yl)-5-(trifluoromethyl)-1H-pyrazol-4-yl]acetamide] | 420
CC(C)n1cc(C(=O)c2cncc(NC(=O)Cc3cccc(Cl)c3)c2)c2cnccc21 [Example 125, 2-(3-chlorophenyl)-N-(5-{[1-(propan-2-yl)-1H-pyrrolo[3,2-c]pyridin-3-yl]carbonyl}pyridin-3-yl)acetamide] | 707
Cc1nccn1CC(=O)Nc1cncc(C(=O)c2cn(C(C)C)c3ccncc23)c1 [Example 118, 2-(2-methyl-1H-imidazol-1-yl)-N-(5-{[1-(propan-2-yl)-1H-pyrrolo[3,2-c]pyridin-3-yl]carbonyl}pyridin-3-yl)acetamide] | 9150

Now from value to compound:

IC50 [nM] | Compound
203 | N#Cc1ccc(CC(=O)Nc2cc(C(=O)c3cn(C4COC4)c4ccncc34)ccn2)cc1 [Example 195, 2-(4-cyanophenyl)-N-(4-{[1-(oxetan-3-yl)-1H-pyrrolo[3,2-c]pyridin-3-yl]carbonyl}pyridin-2-yl)acetamide]
1100 | Cn1nc(C(C)(C)C)nc1CC(=O)Nc1cc(C(=O)c2cn(CCO)c3ccncc23)ccn1 [Example 154, 2-(3-tert-butyl-1-methyl-1H-1,2,4-triazol-5-yl)-N-(4-{[1-(2-hydroxyethyl)-1H-pyrrolo[3,2-c]pyridin-3-yl]carbonyl}pyridin-2-yl)acetamide]
40.6 | CC(C)c1cn(CC(=O)Nc2cc(C(=O)c3cn(C(C)C)c4ccncc34)ccn2)nn1 [Example 98, N-(4-{[1-(propan-2-yl)-1H-pyrrolo[3,2-c]pyridin-3-yl]carbonyl}pyridin-2-yl)-2[4-(propan-2-yl)-1H-1,2,3-triazol-1-yl]acetamide]
29.7 | CC(CO)n1cc(C(=O)c2cncc(NC(=O)Cn3ccc(C(F)(F)F)n3)c2)c2cncc(F)c21 (single isomer, unassigned) [Example 208, N-(5-{[7-fluoro-1-(1-hydroxypropan-2-yl)-1H-pyrrolo[3,2-c]pyridin-3-yl]carbonyl}pyridin-3-yl)-2-[3-(trifluoromethyl)-1H-pyrazol-1-yl]acetamide]
77.6 | CC(CO)n1cc(C(=O)c2cncc(NC(=O)Cn3cc(C(F)(F)F)nn3)c2)c2cnccc21 (single isomer, unassigned) [Example 69, N-(5-{[1-(1-hydroxypropan-2-yl)-1H-pyrrolo[3,2-c]pyridin-3-yl]carbonyl}pyridin-3-yl)-2-[4-(trifluoromethyl)-1H-1,2,3-triazol-1-yl]acetamide]
102 | Cc1cc(CC(=O)Nc2cc(C(=O)c3cn(C(C)C)c4ccncc34)ccn2)[nH]n1 [Example 177, 2(3-methyl-1H-pyrazol-5-yl)-N-(4-{[1-(propan-2-yl)-1H-pyrrolo[3,2-c]pyridin-3-yl]carbonyl}pyridin-2-yl)acetamide]
56 | Cc1nc(CC(=O)Nc2cc(C(=O)c3cn(C(C)C)c4ccncc34)ccn2)c(C)s1 [Example 162, 2-(2,5-dimethyl-1,3-thiazol-4-yl)-N-(4-{[1-(propan-2-yl)-1H-pyrrolo[3,2-c]pyridin-3-yl]carbonyl}pyridin-2-yl)acetamide]
5.3 | CC(C)n1cc(C(=O)c2ccnc(NC(=O)Cc3ccc(C(F)(F)F)cc3)c2)c2cnccc21 [Example 175, N-(4-{[1-(propan-2-yl)-1H-pyrrolo[3,2-c]pyridin-3-yl]carbonyl}pyridin-2-yl)-2-[4-(trifluoromethyl)phenyl]acetamide]
7450 | CC(C)n1cc(C(=O)c2ccnc(NC(=O)Cn3ccnc3)c2)c2cnccc21 [Example 102, 2-(1H-imidazol-1-yl)-N-(4-{[1-(propan-2-yl)-1H-pyrrolo[3,2-c]pyridin-3-yl]carbonyl}pyridin-2-yl)acetamide]
20.2 | O=C(Cc1ccc(C(F)(F)F)cc1)Nc1cc(C(=O)c2cn(CCO)c3ccncc23)ccn1 [Example 141, N-(4-{[1-(2-hydroxyethyl)-1H-pyrrolo[3,2-c]pyridin-3-yl]carbonyl}pyridin-2-yl)-2-[4-(trifluoromethyl)phenyl]acetamide]
180 | CC(C)n1cc(C(=O)c2cncc(NC(=O)Cc3ccc(C#N)cc3)c2)c2cnccc21 [Example 49, 2-(4-cyanophenyl)-N-(5-{[1-(propan-2-yl)-1H-pyrrolo[3,2-c]pyridin-3-yl]carbonyl}pyridin-3-yl)acetamide]
3330 | CC(C)n1cc(C(=O)c2ccnc(NC(=O)Cc3cnccn3)c2)c2cnccc21 [Example 110, N-(4-{[1-(propan-2-yl)-1H-pyrrolo[3,2-c]pyridin-3-yl]carbonyl}pyridin-2-yl)-2-(pyrazin-2-yl)acetamide]
